Measurements as given in patent publication US12493040B2, “Cancer detection method using sense of smell of nematode” (HIROTSU BIO SCIENCE INC., priority 2013, dated 2025).

System: RNAi-treated eri-1 (mg366) nematodes
Assay: RNAi screening of olfactory receptor genes: chemotaxis assay of RNAi-treated nematodes to odorants
Assay type: in vivo, Caenorhabditis elegans
Conditions: low concentration of attractant
Outline: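 Chemotaxis of adult RNAi-fed eri-1 (mg366) nematodes (30–50 per test) was measured toward low (1 μl, 10^−3 or 10^−4 dilution) or high (1 and 5 μl neat) odorant doses. Knockdown: 4 days feeding on E. coli from Ahringer library with IPTG and ampicillin. Differences called by z score at ±1.96, weaker cutoff ±0.96.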

`CCC(C)=O` [butanone] was tested, and the chemotaxis index (Control nematodes) was 0.65 ± 0.021, the chemotaxis index (srh-10 RNAi-treated nematodes) was −0.65 and the chemotaxis index (srh-11 RNAi-treated nematodes) was −0.15. It also gave a chemotaxis index (srh-15 RNAi-treated nematodes) of 0.55, a chemotaxis index (srh-16 RNAi-treated nematodes) of 0.74 and a chemotaxis index (srh-18 RNAi-treated nematodes) of 0.52. For the same compound, the chemotaxis index (srh-19 RNAi-treated nematodes) was 0.89, the chemotaxis index (srh-22 RNAi-treated nematodes) was 0.19 and the chemotaxis index (srh-23 RNAi-treated nematodes) was 0.67. It also gave a chemotaxis index (srh-24 RNAi-treated nematodes) of 0.59, a chemotaxis index (srh-25 RNAi-treated nematodes) of 0.72 and a chemotaxis index (srh-27 RNAi-treated nematodes) of 0.63. It also gave a chemotaxis index (srh-28 RNAi-treated nematodes) of 0.55, a chemotaxis index (srh-36 RNAi-treated nematodes) of 0.37 and a chemotaxis index (srh-37 RNAi-treated nematodes) of 0.37. The chemotaxis index (srh-39 RNAi-treated nematodes) was 0.48, the chemotaxis index (srh-40 RNAi-treated nematodes) was 0.94 and the chemotaxis index (srh-41 RNAi-treated nematodes) was 0.64. It also gave a chemotaxis index (srh-44 RNAi-treated nematodes) of 0.82, a chemotaxis index (srh-45 RNAi-treated nematodes) of 0.73 and a chemotaxis index (srh-46 RNAi-treated nematodes) of 0.82. The chemotaxis index (srh-48 RNAi-treated nematodes) was 0.55, the chemotaxis index (srh-49 RNAi-treated nematodes) was 0.80 and the chemotaxis index (srh-50 RNAi-treated nematodes) was 0.87. The chemotaxis index (srh-51 RNAi-treated nematodes) was 0.70, the chemotaxis index (srh-52 RNAi-treated nematodes) was 0.69 and the chemotaxis index (srh-55 RNAi-treated nematodes) was 0.43. The chemotaxis index (srh-59 RNAi-treated nematodes) was 0.51, the chemotaxis index (srh-60 RNAi-treated nematodes) was 0.79 and the chemotaxis index (srh-61 RNAi-treated nematodes) was 0.74. The chemotaxis index (srh-67 RNAi-treated nematodes) was 0.85, the chemotaxis index (srh-68 RNAi-treated nematodes) was 0.67 and the chemotaxis index (srh-69 RNAi-treated nematodes) was 0.66. The chemotaxis index (srh-70 RNAi-treated nematodes) was 0.43, the chemotaxis index (srh-71 RNAi-treated nematodes) was 0.76 and the chemotaxis index (srh-72 RNAi-treated nematodes) was 0.58. It also gave a chemotaxis index (srh-74 RNAi-treated nematodes) of 0.76, a chemotaxis index (srh-75 RNAi-treated nematodes) of 0.76 and a chemotaxis index (srh-77 RNAi-treated nematodes) of 0.70. The chemotaxis index (srh-79 RNAi-treated nematodes) was 0.58, the chemotaxis index (srh-80 RNAi-treated nematodes) was 0.64 and the chemotaxis index (srh-82 RNAi-treated nematodes) was 0.79. For the same compound, the chemotaxis index (srh-83 RNAi-treated nematodes) was 0.71, the chemotaxis index (srh-97 RNAi-treated nematodes) was 0.80 and the chemotaxis index (srh-99 RNAi-treated nematodes) was 0.75. For the same compound, the chemotaxis index (srh-100 RNAi-treated nematodes) was 0.80, the chemotaxis index (srh-104 RNAi-treated nematodes) was 0.48 and the chemotaxis index (srh-105 RNAi-treated nematodes) was 0.76. For the same compound, the chemotaxis index (srh-109 RNAi-treated nematodes) was 0.89, the chemotaxis index (srh-111 RNAi-treated nematodes) was 0.59 and the chemotaxis index (srh-113 RNAi-treated nematodes) was 0.30. It also gave a chemotaxis index (srh-115 RNAi-treated nematodes) of 0.70, a chemotaxis index (srh-116 RNAi-treated nematodes) of 0.56 and a chemotaxis index (srh-118 RNAi-treated nematodes) of 0.60. For the same compound, the chemotaxis index (srh-119 RNAi-treated nematodes) was 0.50, the chemotaxis index (srh-120 RNAi-treated nematodes) was 0.78 and the chemotaxis index (srh-122 RNAi-treated nematodes) was 0.58. The chemotaxis index (srh-123 RNAi-treated nematodes) was 0.84, the chemotaxis index (srh-125 RNAi-treated nematodes) was 0.76 and the chemotaxis index (srh-128 RNAi-treated nematodes) was 0.69. The chemotaxis index (srh-129 RNAi-treated nematodes) was 0.63, the chemotaxis index (srh-130 RNAi-treated nematodes) was 0.82 and the chemotaxis index (srh-214 RNAi-treated nematodes) was 0.85. For the same compound, the chemotaxis index (srh-216 RNAi-treated nematodes) was 0.86, the chemotaxis index (srh-217 RNAi-treated nematodes) was 0.69 and the chemotaxis index (srh-220 RNAi-treated nematodes) was 0.81. It also gave a chemotaxis index (srh-222 RNAi-treated nematodes) of 0.62, a chemotaxis index (srh-223 RNAi-treated nematodes) of 0.88 and a chemotaxis index (srh-227 RNAi-treated nematodes) of 0.37. The chemotaxis index (srh-229 RNAi-treated nematodes) was 0.60, the chemotaxis index (srh-233 RNAi-treated nematodes) was 0.50 and the chemotaxis index (srh-235 RNAi-treated nematodes) was 0.76. It also gave a chemotaxis index (srh-236 RNAi-treated nematodes) of 0.71, a chemotaxis index (srh-239 RNAi-treated nematodes) of 0.59 and a chemotaxis index (srh-241 RNAi-treated nematodes) of 0.63. For the same compound, the chemotaxis index (srh-243 RNAi-treated nematodes) was 0.72, the chemotaxis index (srh-244 RNAi-treated nematodes) was 0.73 and the chemotaxis index (srh-247 RNAi-treated nematodes) was 0.85. It also gave a chemotaxis index (srh-250 RNAi-treated nematodes) of 0.79, a chemotaxis index (srh-251 RNAi-treated nematodes) of 0.92 and a chemotaxis index (srh-252 RNAi-treated nematodes) of 0.86. For the same compound, the chemotaxis index (srh-258 RNAi-treated nematodes) was 0.56, the chemotaxis index (srh-261 RNAi-treated nematodes) was 0.60 and the chemotaxis index (srh-264 RNAi-treated nematodes) was 0.56. It also gave a chemotaxis index (srh-266 RNAi-treated nematodes) of −0.31, a chemotaxis index (srh-274 RNAi-treated nematodes) of −0.59 and a chemotaxis index (srh-275 RNAi-treated nematodes) of −0.29. The chemotaxis index (srh-276 RNAi-treated nematodes) was 0.30, the chemotaxis index (srh-277 RNAi-treated nematodes) was −0.09 and the chemotaxis index (srh-279 RNAi-treated nematodes) was 0.89. The chemotaxis index (srh-281 RNAi-treated nematodes) was 0.49, the chemotaxis index (srh-282 RNAi-treated nematodes) was 0.80 and the chemotaxis index (srh-283 RNAi-treated nematodes) was 0.65. For the same compound, the chemotaxis index (srh-284 RNAi-treated nematodes) was 0.73, the chemotaxis index (srh-291 RNAi-treated nematodes) was 0.86 and the chemotaxis index (srh-292 RNAi-treated nematodes) was 0.80. For the same compound, the chemotaxis index (srh-293 RNAi-treated nematodes) was 0.75, the chemotaxis index (srh-297 RNAi-treated nematodes) was 0.84 and the chemotaxis index (srh-298 RNAi-treated nematodes) was 0.65. It also gave a chemotaxis index (srh-308 RNAi-treated nematodes) of 0.04.
